What follows are compounds tested on HCV replicon (assay: HCV replicon luciferase reporter assay). Conditions: Hepatitis C virus.
Format: cell-based
Set-up: scale not given here
Protocol: The inhibitory activity of certain exemplary compounds of the invention was confirmed using an HCV replicon assay. The HCV replicon can include such features as the HCV IRES, the HCV 3′ untranslated region, selected HCV genes encoding HCV polypeptides, selectable markers, and a reporter gene such as luciferase, GFP, etc. In the assay, actively dividing replicon-comprising cells were seeded at a density of between about 5,000 and 7,500 cells/well onto 96 well plates (about 90 μl of cells per well) and incubated at 37° C. and 5% CO2 for 24 hours. Then, the test compound (in a volume of about 10 μL) was added at various concentrations to each well and the cells were incubated for an additional 24-48 hours. The cells were harvested, and HCV replication or translation was monitored via a reporter assay, e.g., a luciferase reporter assay. The media was aspirated from each cell and Bright-Glo ([…].) luciferase assay reagents were added to each well according to the manufacturer's instructions. In this assay, the amount of test compound that yielded a 50% reduction in luciferase activity (IC50) was determined.

`O=C(N1CCc2ccc(S(=O)(=O)NCCCNc3nsc4ccccc34)cc2C1)C(F)(F)F` [Compound 252, N-(3-(benzo[d]isothiazol-3-ylamino)propyl)-2-(2,2,2-trifluoroacetyl)-1,2,3,4-tetrahydroisoquinoline-7-sulfonamide] was tested, and the IC50 was < 5 µM.

Same assay, conditions: Hepatitis C virus, Table 5; read-out: IC50

`O=[N+]([O-])c1cccc(S(=O)(=O)NCCCNc2nsc3ccccc23)c1` [Compound 242, N-(3-(benzo[d]isothiazol-3-ylamino)propyl)-3-nitrobenzenesulfonamide] and `O=S(=O)(NCCCNc1nsc2ccccc12)c1cccc(Br)c1` [Compound 268, N-(3-(benzo[d]isothiazol-3-ylamino)propyl)-3-bromobenzenesulfonamide] cannot be ordered by IC50: < 5 µM for the first, < 5 µM for the second.

`COC(=O)c1ccccc1S(=O)(=O)NCCCNc1nsc2ccccc12` [Compound 243, methyl 2-(N-(3-(benzo[d]isothiazol-3-ylamino)propyl)sulfamoyl)benzoate] and `COC(=O)c1ccc(S(=O)(=O)NCCCNc2nsc3ccccc23)o1` [Compound 244, methyl 5-(N-(3-(benzo[d]isothiazol-3-ylamino)propyl)sulfamoyl)furan-2-carboxylate] cannot be ordered by IC50: < 5 µM for the first, < 5 µM for the second.

`O=S(=O)(NCCCNc1nsc2ccccc12)c1ccc(C(F)(F)F)cc1` [Compound 245, N-(3-(benzo[d]isothiazol-3-ylamino)propyl)-4-(trifluoromethyl)benzenesulfonamide] and `O=S(=O)(NCCCNc1nsc2ccccc12)c1ccc(Br)c(C(F)(F)F)c1` [Compound 269, N-(3-(benzo[d]isothiazol-3-ylamino)propyl)-4-bromo-3-(trifluoromethyl)benzenesulfonamide] cannot be ordered by IC50: < 5 µM for the first, < 5 µM for the second.

`O=S(=O)(NCCCNc1nsc2ccccc12)c1cc(C(F)(F)F)cc(C(F)(F)F)c1` [Compound 246, N-(3-(benzo[d]isothiazol-3-ylamino)propyl)-3,5-bis(trifluoromethyl)benzenesulfonamide] and `O=S(=O)(NCCCNc1nsc2ccccc12)c1ccc(Br)cc1C(F)(F)F` [Compound 263, N-(3-(benzo[d]isothiazol-3-ylamino)propyl)-4-bromo-2-(trifluoromethyl)benzenesulfonamide] cannot be ordered by IC50: < 5 µM for the first, < 5 µM for the second.

`Cc1nc(S(=O)(=O)NCCCNc2nsc3ccccc23)cn1C` [Compound 248, N-(3-(benzo[d]isothiazol-3-ylamino)propyl)-1,2-dimethyl-1H-imidazole-4-sulfonamide] and `Cc1cc(S(=O)(=O)NCCCNc2nsc3ccccc23)ccc1Br` [Compound 265, N-(3-(benzo[d]isothiazol-3-ylamino)propyl)-4-bromo-3-methylbenzenesulfonamide] cannot be ordered by IC50: < 5 µM for the first, < 5 µM for the second.

`O=S(=O)(NCCCNc1nsc2ccccc12)c1cccc2cccnc12` [Compound 249, N-(3-(benzo[d]isothiazol-3-ylamino)propyl)quinoline-8-sulfonamide] and `O=S(=O)(NCCCNc1nsc2ccccc12)c1ccc(Br)cc1Cl` [Compound 262, N-(3-(benzo[d]isothiazol-3-ylamino)propyl)-4-bromo-2-chlorobenzenesulfonamide] cannot be ordered by IC50: < 5 µM for the first, < 5 µM for the second.

`O=S(=O)(NCCCNc1nsc2ccccc12)c1ccc(F)c(F)c1F` [Compound 250, N-(3-(benzo[d]isothiazol-3-ylamino)propyl)-2,3,4-trifluorobenzenesulfonamide] and `O=S(=O)(NCCCNc1nsc2ccccc12)c1c(F)cc(F)cc1Br` [Compound 253, N-(3-(benzo[d]isothiazol-3-ylamino)propyl)-2-bromo-4,6-difluorobenzenesulfonamide] cannot be ordered by IC50: < 5 µM for the first, < 5 µM for the second.

`COc1ccc(S(=O)(=O)NCCCNc2nsc3ccccc23)cc1` [Compound 251, N-(3-(benzo[d]isothiazol-3-ylamino)propyl)-4-methoxybenzenesulfonamide] and `COc1ccc(OC)c(S(=O)(=O)NCCCNc2nsc3ccccc23)c1` [Compound 261, N-(3-(benzo[d]isothiazol-3-ylamino)propyl)-2,5-dimethoxybenzenesulfonamide] cannot be ordered by IC50: < 5 µM for the first, < 5 µM for the second.

`O=S(=O)(c1ccccc1C(F)(F)F)N(CCCNc1nsc2ccccc12)Cc1ccccc1` [Compound 254, N-(3-(benzo[d]isothiazol-3-ylamino)propyl)-N-benzyl-2-(trifluoromethyl)benzenesulfonamide] and `COc1ccc(-c2ccc(CN(CCCNc3nsc4ccccc34)S(=O)(=O)c3ccccc3C(F)(F)F)cc2)cc1` [Compound 270, N-(3-(benzo[d]isothiazol-3-ylamino)propyl)-N-((4′-methoxybiphenyl-4-yl)methyl)-2-(trifluoromethyl)benzenesulfonamide] cannot be ordered by IC50: < 5 µM for the first, < 5 µM for the second.

`COc1ccc(-c2ccc(CN(CCCNc3nsc4ccccc34)C(=O)CN3CCOCC3)cc2)cc1` [Compound 255, N-(3-(benzo[d]isothiazol-3-ylamino)propyl)-N-((4′-methoxybiphenyl-4-yl)methyl)-2-morpholinoacetamide] and `COc1ccc(-c2ccc(CN(CCCNc3nsc4ccccc34)C(=O)CN3CCN(c4ccccc4)CC3)cc2)cc1` [Compound 256, N-(3-(benzo[d]isothiazol-3-ylamino)propyl)-N-((4′-methoxybiphenyl-4-yl)methyl)-2-(4-phenylpiperazin-1-yl)acetamide] cannot be ordered by IC50: < 5 µM for the first, < 5 µM for the second.

`COc1ccc(-c2ccc(CN(CCCNc3nsc4ccccc34)C(=O)CNC(C)C)cc2)cc1` [Compound 257, N-(3-(benzo[d]isothiazol-3-ylamino)propyl)-2-(isopropylamino)-N-((4′-methoxybiphenyl-4-yl)methyl)acetamide] and `COc1ccc(NS(=O)(=O)c2ccc(CNCCCNc3nsc4ccccc34)cc2)cc1` [Compound 258, 4-((3-(benzo[d]isothiazol-3-ylamino)propylamino)methyl)-N-(4-methoxyphenyl)benzenesulfonamide] cannot be ordered by IC50: < 5 µM for the first, < 5 µM for the second.

`O=S(=O)(c1ccc(CNCCCNc2nsc3ccccc23)cc1)N1CCOCC1` [Compound 259, N^1-(benzo[d]isothiazol-3-yl)-N^3-(4-(morpholinosulfonyl)benzyl)propane-1,3-diamine] and `O=S(=O)(c1ccc(CNCCCNc2nsc3ccccc23)cc1)N1CCCC1` [Compound 260, N^1-(benzo[d]isothiazol-3-yl)-N^3-(4-(pyrrolidin-1-ylsulfonyl)benzyl)propane-1,3-diamine] cannot be ordered by IC50: > 5 µM for the first, > 5 µM for the second.

`COc1ccc(S(=O)(=O)NCCCNc2nsc3ccccc23)cc1OC` [Compound 264, N-(3-(benzo[d]isothiazol-3-ylamino)propyl)-3,4-dimethoxybenzenesulfonamide] and `O=S(=O)(NCCCNc1nsc2ccccc12)c1cccc(OC(F)(F)F)c1` [Compound 266, N-(3-(benzo[d]isothiazol-3-ylamino)propyl)-3-(trifluoromethoxy)benzenesulfonamide] cannot be ordered by IC50: < 5 µM for the first, < 5 µM for the second.

For `O=S(=O)(NCCCNc1nsc2ccccc12)c1c(Cl)cc(Br)cc1Cl` [Compound 267, N-(3-(benzo[d]isothiazol-3-ylamino)propyl)-4-bromo-2,6-dichlorobenzenesulfonamide], the IC50 was < 5 µM.

Same assay, conditions: Table 5; the head prints only IC50; b387 says Tables 5 and 6 hold Replicon reporter and Western blot results

In the case of `O=S(=O)(NCCNc1nsc2ccccc12)c1ccc(Cl)cc1` [Compound 271, N-(2-(benzo[d]isothiazol-3-ylamino)ethyl)-4-chlorobenzenesulfonamide], the IC50 is reported as “A, B”.
For `c1ccc(CNCCNc2nsc3ccccc23)nc1` [Compound 272, N^1-(benzo[d]isothiazol-3-yl)-N^2-(pyridin-2-ylmethyl)ethane-1,2-diamine], the IC50 was “A, B”.
